# Laboratory results: patent US20230338340A1, “Methods of Treating Cystic Fibrosis” (The Trustees of Dartmouth College, priority 2020, published 2023)
# Non-standard residues stand in square brackets, D forms with d. Residues, ends and D or L forms follow the SMILES beside them. Tle = CC(C)(C)[C@H](N)C(=O)O
# Tests used:
# Format in all cases: binding
# CAL PDZ = molecular target: T1, CAL PDZ (Homo sapiens, UniProt Q9HD26); test: CALP fluorescence polarization (FP) competition assay, HTS format with dose-response validation; parameters: Inhibitory activity CALP at 100 μM: unit not given here; settings: for IC50: read-out: Inhibitory activity CALP IC50
# T1 construct: Recombinant CAL PDZ was expressed and purified in E. coli as previously described; made in house; host or cells: E. coli
# Description: (§1) CALP and/or Dab2 inhibition assays were performed in biochemical “mix-and-measure” format in order to evaluate the effects on activation and inhibition of CALP and/or Dab2 by the compounds of the disclosure. Brief assay procedure is provided below. Unless otherwise specified, all of the compounds were obtained from commercial sources.
# CALP inhibitors were identified by fluorescence polarization (FP) competition assays in high-throughput screening (HTS) format. Recombinant CAL PDZ was expressed and purified in E. coli as previously described (Amacher et al., Acta Cyst. (2011) F67, 600-603), and dialyzed into FP storage buffer (25 mM Tris pH 8.5, 150 mM NaCl, 0.1 mM TCEP, and 0.02% sodium azide). A fluorescent reporter peptide, NPG32, was purchased commercially with the following sequence: F*-[…] (F* denotes a N-terminal fluorescein group coupled via an aminohexanoic acid linker). Initial single-dose HTS was performed with libraries comprising ˜52,000 compounds (FAST Lab—Novartis Institutes for BioMedical Research). First, 25 nL of 5 mM small-molecule was transferred to 1536-well Grenier plates. 3 μL of 3.708 μM CALP in FP buffer (FP storage buffer supplemented with […]) was added, and plates were incubated for 10 min. Next, 3 μL of 60 nM NPG32 (in FP buffer) was added. Final reaction volumes were 6 μL and contained 1.854 μM CALP, 30 nM NPG32, and 20.83 μM small-molecule. […] Plates were incubated for 30 minutes at room temperature and anisotropy was measured (480 nm excitation wavelength and 535 nm emission wavelength). […] Compounds were validated in triplicate using 8-point dilution series in half-log increments with two orthogonal assays: FRET and TMR-based FP assay. For the FRET assay, a cerulean-CALP fusion protein (Cer-CALP) was expressed and purified as previously described (Zhao et al., 2018). A fluorescent reporter peptide, PRC34, was purchased commercially with the following sequence: TMR*-[…] (TMR* denotes a N-terminal tetramethylrhodamine group coupled via an aminohexanoic acid linker). First, 40 nL of compound was transferred to the plates. 5 μL of 16.632 μM Cer-CALP was added, and plates were incubated for 30 min. Next, 5 μL of 16.632 μM PRC34 was added, and plates were incubated for 30 min. Final reaction volumes were 10 μL and contained 8.316 μM CALP, 8.316 μM […], and variable concentrations of small-molecule. Negative controls contained equivalent amounts of DMSO (0.4%), while positive controls contained 100 μM NPG30 (sequence: […]). Plates were incubated for 30 min, and emission at 475 nm and 575 nm was measured following excitation at 430 nm. TMR FP assays were conducted as described for the FITC-based assay with the following exceptions: TMR was used as the reporter peptide, the final CALP concentration was 11.952 μM, and the positive control used was 100 μM NPG30.
# Human-Dab2-DH = molecular target: T2, Human-Dab2-DH (Homo sapiens, UniProt P98082); test: Dab2 FP competition assay via HTS; settings: read-out: Inhibitory activity Dab2 IC50
# T2 construct: fused on or other part: N-terminal 10xHis tag with a 3C protease site, cleaved off unless otherwise indicated
# T2 sequence (P98082 33-178 limits assumed): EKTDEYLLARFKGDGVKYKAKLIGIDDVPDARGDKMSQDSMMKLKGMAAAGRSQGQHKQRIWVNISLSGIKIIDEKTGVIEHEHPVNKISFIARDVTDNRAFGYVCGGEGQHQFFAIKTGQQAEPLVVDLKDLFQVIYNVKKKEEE
# Description: as §1
# Dab-2 inhibitors were also identified by FP competition assays via HTS. Human-Dab2-DH, residues 31-191 (Uniprot: P98082), and trDab2-DH (residues 33-178) was subcloned into the pET16b vector via PCR utilizing the restriction enzyme sites of Xhol and BamHI. The construct was designed with a 3C protease cleavage site directly upstream and in-frame with the protein coding sequence. DNA was sequence verified. (0.1 mM) IPTG was used to induce protein expression in E. coli BL21(DE3)RIL cells, after reaching an O.D. of […]. […] Followed by 3C cleavage of the 10×His tag (unless otherwise indicated), and a second nickel affinity column to remove the 3C protease and excess tag. Dab2-DH was dialyzed into FP storage buffer (25 mM Tris pH 8.0, 150 mM NaCl, 0.1 mM TCEP, and 0.02% sodium azide). Fluorescent reporter peptides, TIVR*STA02 (TMR*-[…]) and TMR*STA03 (TMR*-[…]), were purchased commercially with the following sequence where TMR* denotes a N-terminal tetramethylrhodamine group coupled via an aminohexanoic acid linker. An unlabled positive control peptide STA02 ([…]) was also purchased commercially. Inhibitors of Dab2-DH were identified from a variety of sources with various protocols outlined below.
# For screens conducted at the Novartis Institutes for BioMedical Research FAST Lab, single-dose HTS assays were performed with libraries comprising ˜52,000 compounds at 20 μM doses. Experiments were conducted as described for screens at the University of Pittsburgh Lab and Drug Discovery Institute, except that Dab2-DH, not trDab2-DH, was used as the protein source.
# For screens conducted at the Broad Institute, compound transfers were done using a 384-well pin tool equipped with 100 nL hydrophobic surface coated pins. 100 nL of DMSO (negative control), STA02 (positive control), or library compounds were dispensed into 20 μL of protein (200 nM) and reporter (F*-STA02, 30 nM) mixture with 0.1 mg/ml mouse IgG and 0.5 mM Thesit. Final concentrations in the mixture were DMSO ([…]), STA02 (20 μM), and compounds (18 μM). Plates were incubated for 35-45 minutes before measuring polarization. Compounds were tested in duplicates on two separate plates. Positive and negative controls were included in each individual plate.
# For experiments conducted at the University of Pittsburgh Lab and Drug Discovery Institute, single-dose HTS assays were performed with a library containing ˜220,000 compounds. On the day of screening, a master mix of equal parts trDab2-DH (900 nM) and TMP-STA03 (90 nM) was prepared. Compound plates containing assay ready 2 μL aliquots of a 1 mM stock solution in DMSO were thawed, reconstituted in FP buffer to a concentration of 30 μM in 3% DMSO, and five μL transferred to low volume assay plates using a Perkin Elmer MDT. Ten μL of master mix were added by a Microflo bulk liquid dispenser (Biotek, Winooski, VT) and processed as described in the general protocol above. Each plate contained 32 wells of positive (Dab2-DH+probe+DMSO) and negative (Dab2-DH+probe +10 μM STA03) controls. Plates were read at 1.5-h and 4-h on the Envision multilabel reader.
# CALP = molecular target: T3, CALP (Homo sapiens, UniProt Q9HD26); test: Dose-dependent CALP inhibition by FP competition assay, large-volume format; settings: one experimental replicate
# T3 construct: Recombinant CAL PDZ was expressed and purified in E. coli as previously described; made in house; host or cells: E. coli
# Description: The following compounds of Table 2 were obtained from commercial sources, and evaluated in fluorescence polarization (FP) competition assay.
# Specifically, dose-dependent CALP inhibition of compounds of examples 36-41 was assessed by FP competition assays. Experiments were conducted similarly to HTS assays described above but in large-volume format. Briefly, CALP was expressed and purified as previously described (Amacher et al., 2011). A fluorescently labeled peptide, NPG32, was commercially obtained (sequence: F*-[…] where F* denotes a N-terminal fluorescein group coupled via an aminohexanoic acid linker). CALP was dialyzed into FP storage buffer (25 mM Tris pH 8.5, 150 mM NaCl, 0.1 mM TCEP, and 0.02% sodium azide). CALP was diluted into FP buffer (FP storage buffer supplemented with 0.1 mg/mL IgG and 30 μM thesit) containing 31.58 nM NPG32. The protein/reporter solution was aliquoted into 384-well plates with each well containing 19 μL of the mixture. Twelve-point titrations (2-fold serial dilutions) of the test compounds were prepared in 25% DMSO. To each well, 1 μL of compound was added. […] Plates were incubated at room temperature for 30 min before anisotropy was measured. […] Except for Examples 37-38, the reported potency for all compounds was calculated by averaging three experimental replicates.
Compound,Inhibitory activity CALP at 100 μM (CAL PDZ),IC50 (CAL PDZ) [µM],IC50 (Human-Dab2-DH) [µM],CALP binding in FP competition (CALP),Kd (CAL PDZ; unlabeled peptide used as positive control) [µM]
"O=C(O[C@@H]1Cc2c(O)cc(O)cc2O[C@@H]1c1cc(=O)c(O)c2c(O)c(O)cc([C@H]3Oc4cc(O)cc(O)c4C[C@H]3O)c2c1)c1cc(O)c(O)c(O)c1 [Example 1, (2R,3R)-5,7-dihydroxy-2-(3,4,5-trihydroxy-6-oxo-1-((2R,3R)-3,5,7-trihydroxychroman-2-yl)-6H-benzo[7]annulen-8-yl)chroman-3-yl 3,4,5-trihydroxybenzoate]",−65.53,11.3,2.45,,
"Oc1ccc(N2CCN(c3ncccn3)CC2)cc1 [Example 5, 4-(4-(pyrimidin-2-yl)piperazin-1-yl)phenol]",−46.33,40.5,20.6,,
"O=C1c2c(O)c(Cl)cc3c2[C@@]2(Oc4cc(Cl)c(O)c5c4[C@]3(O2)[C@@H]2O[C@@H]2C5=O)[C@@H]2O[C@H]12 [Example 3, (1aR,1bS,5aS,6aR,6bS,11aS)-3,9-dichloro-4,10-dihydroxy-1a,5a,6a,11a-tetrahydro-5H,11H-1b,6b-epoxyoxireno[2′,3′:2,3]naphtho[1,8-bc]oxireno[2′,3′:2,3]naphtho[1,8-ef]oxepine-5,11-dione]",−80.85,25.3,0.26,,
"COc1cc(O)c2c(c1)oc(=O)c1c3cc(O)c(O)cc3oc21 [Example 7, 1,8,9-trihydroxy-3-methoxy-6H-benzofuro[3,2-c]chromen-6-one]",−74.42,1.24,,,
"C/C1=C/CC(O)/C=C\C(C)C(O)C(C)/C=C(\C)C(=O)c2c(O)c(C)cc3c2C(=O)C(Cl)=C(NC(=O)/C=C/C=C/C=C/C(C)C(O)CC1=O)C3=O (stereo not drawn) [Example 15, 2-chloro-13,19,23,28-tetrahydroxy-12,16,22,24,26,29-hexamethyl-13,14,19,22,23,24-hexahydro-1H-3,31-methanobenzo[e][1]azacyclononacosine-1,5,15,27,32(4H,12H,18H)-pentaone]",−54.29,4.71,,,
"O=c1[nH]c2ccc(S(=O)(=O)Nc3ccc(O)cc3)cc2[nH]1 [Example 38, N-(4-hydroxyphenyl)-2-oxo-2,3-dihydro-1H-benzo[d]imidazole-5-sulfonamide]",,,,absence of binding,
"O=c1[nH]c2ccc(S(=O)(=O)Nc3cccc4ccccc34)cc2[nH]1 [Example 37, N-(naphthalen-1-yl)-2-oxo-2,3-dihydro-1H-benzo[d]imidazole-5-sulfonamide]",,,,absence of binding,
"CC(C)[C@H](NC(=O)[C@H](CCC(N)=O)NC(=O)[C@H](Cc1c[nH]c2ccccc12)NC(=O)[C@H](CCCNC(=N)N)NC(=O)[C@H](CO)NC(=O)[C@H](CC(N)=O)NC(=O)[C@H](C)N)C(=O)N[C@H](C(=O)N[C@@H](CCCNC(=N)N)C(=O)N[C@H](C(=O)O)C(C)(C)C)[C@@H](C)O [NPG35, reference compound] (H-ANSRWQVTR[Tle]-OH)",,,,,≤ 1
"CC1COC2C3=C(C(=O)C=CC3=O)C3OC(=O)C4CCC5C1CCC25C43 (stereo not drawn) [Example 2, 6-methyl-2a,2a^1,3,4,4a,5,6,7,8a,12b-decahydro-2H-4a^1,5-ethanofuro[4′,3′,2′:4,10]anthra[9,1-bc]oxepine-2,9,12-trione]",−67.12,1.3,0.22,,
"CC[C@@]1(O)C[C@H](O[C@H]2C[C@H](N(C)C)[C@H](O)[C@H](C)O2)c2c(cc3c(c2O)C(=O)c2c(O)ccc(O)c2C3=O)[C@H]1C(=O)OC [Example 14, methyl (1R,2R,4S)-4-(((2R,4S,5S,6S)-4-(dimethylamino)-5-hydroxy-6-methyltetrahydro-2H-pyran-2-yl)oxy)-2-ethyl-2,5,7,10-tetrahydroxy-6,11-dioxo-1,2,3,4,6,11-hexahydrotetracene-1-carboxylate]",−67.06,0.73,,,
"Cc1c(O)c(O)c(O)c(C=O)c1C=O [Example 4, 3,4,5-trihydroxy-6-methylphthalaldehyde]",−94.09,10.2,3.42,,
